Active and inactive are the calls of the source. The rule behind the calls is not given here.
Columns and labels:
dengue virus type 2 [1] = assay: Antiviral activity against Dengue virus 2 infected in human HepG2 cells assessed as NS1 level at < maximum non-toxic concentration after 72 hrs by sandwich ELISA (reference value: 44.5 +/- 3.2 PbU); assay type: functional
[2] = (§1) Inhibition of Dengue virus 2 recombinant 6xHis-tagged NS2B/NS3 serine protease using Boc-Gly-Arg-Arg-AMC as substrate measured for 60 mins by fluorimetric analysis; set-up: species or system dengue virus type 2
dengue virus type 2 [3] = assay: as §1
dengue virus type 2 [4] = assay: Antiviral activity against Dengue virus 2 infected in human HepG2 cells assessed as reduction in NS1 level at 19.5 uM after 72 hrs by sandwich ELISA relative to control; assay type: functional; set-up: scale not given: the % may be the effect or the level left
dengue virus type 2 [5] = assay: Antiviral activity against Dengue virus 2 infected in human HepG2 cells assessed as reduction in NS1 level at 9.8 uM administered 1 hr postinfection measured after 72 hrs by sandwich ELISA relative to control; assay type: functional; set-up: scale not given: the % may be the effect or the level left
[6] = Cytotoxicity against human HepG2 cells assessed as cell viability after 72 hrs by MTT assay; assay type: cell-based
[7] = Selectivity index, ratio of CC50 for human HepG2 cells to IC50 for Dengue virus 2 infected in human HepG2 cells; assay type: functional
dengue virus type 2 [8] = assay: Antiviral activity against Dengue virus 2 infected in human HepG2 cells assessed as reduction in NS1 level after 72 hrs by sandwich ELISA; assay type: functional, organism-based; conditions: HepG2, 72 h
dengue virus type 2 [9] = assay: Antiviral activity against Dengue virus 2 infected in human HepG2 cells assessed as reduction in NS1 level at 100 uM administered 1 hr postinfection measured after 72 hrs by sandwich ELISA relative to control; assay type: functional, organism-based
HepG2 [10] = assay: Cytotoxicity against human HepG2 cells assessed as reduction in cell viability up to 100 uM after 72 hrs by MTT assay; assay type: cell-based; conditions: hepg2, 72 h
dengue virus type 2 [11] = assay: Antiviral activity against Dengue virus 2 infected in human HepG2 cells assessed as reduction in NS1 level at 85.7 uM administered 1 hr postinfection measured after 72 hrs by sandwich ELISA relative to control; assay type: functional; set-up: scale not given: the % may be the effect or the level left
dengue virus type 2 [12] = assay: Antiviral activity against Dengue virus 2 infected in human HepG2 cells assessed as reduction in NS1 level at 49.2 uM administered 1 hr postinfection measured after 72 hrs by sandwich ELISA relative to control; assay type: functional; set-up: scale not given: the % may be the effect or the level left
dengue virus type 2 [13] = assay: Antiviral activity against Dengue virus 2 infected in human HepG2 cells assessed as reduction in NS1 level at 13.5 uM administered 1 hr postinfection measured after 72 hrs by sandwich ELISA relative to control; assay type: functional; set-up: scale not given: the % may be the effect or the level left
dengue virus type 2 [14] = assay: Antiviral activity against Dengue virus 2 infected in human HepG2 cells assessed as reduction in NS1 level at 12.5 uM administered 1 hr postinfection measured after 72 hrs by sandwich ELISA relative to control; assay type: functional, organism-based
HepG2 [15] = assay: Cytotoxicity against human HepG2 cells assessed as reduction in cell viability up to 12.5 uM after 72 hrs by MTT assay; assay type: cell-based; conditions: hepg2, 72 h

SMILES | IC50 [2] [µM] | inhibition (dengue virus type 2 [3]) | CC50 at 72 h [6] [µM] | Ratio CC50/IC50 [7] | IC50 (dengue virus type 2 [8]) [µM] | further results
NC(=O)c1ncn([C@@H]2O[C@H](CO)[C@@H](O)[C@H]2O)n1 [RIBAVIRIN] |  |  |  |  |  | Activity (dengue virus type 2 [1]): 8.3 PbU
CC1(C)CC(=O)C2=C(C1)c1c(ccc3ccccc13)NC2c1ccc(-c2ccc(O)c(C(=O)O)c2)o1 (centres undefined) | 17.5 | Dose-dependent effect | 58.6 | 3.9 | 14.9 | Activity (dengue virus type 2 [4]): 69.8%; Activity (dengue virus type 2 [5]): 15.5%
Cc1ccc2nc(-c3ccc(NC(=O)c4c(O)c5c(n(Cc6ccco6)c4=O)CCCC5)cc3)sc2c1 | 608 | Dose-dependent effect |  |  |  | Activity (dengue virus type 2 [9]): inactive; Activity (HepG2 [10]): Non-toxic
COc1ccc(C(c2c(O)c3ccccc3oc2=O)c2c(O)c3ccccc3oc2=O)cc1COc1ccc(NC(C)=O)cc1 | 19.9 | Dose-dependent effect | 162 | 2.6 | 61.5 | Activity (dengue virus type 2 [11]): 79.9%; Activity (dengue virus type 2 [12]): 37%
COc1ccc(C(c2c(O)c3ccccc3oc2=O)c2c(O)c3ccccc3oc2=O)cc1CSc1nc2ccccc2s1 | 9.09 | Dose-dependent effect | 42.1 | 3.6 | 11.8 | Activity (dengue virus type 2 [13]): 73.9%
O=c1oc2ccccc2c(O)c1C1c2ccccc2Oc2c1c(=O)oc1ccccc21 (centres undefined) | 18.9 | Dose-dependent effect |  |  |  | Activity (dengue virus type 2 [14]): inactive; Activity (HepG2 [15]): Non-toxic
